Results as given in patent US9115081B2, “Synthetic process for aminocyclohexyl ether compounds” (Cardiome Pharma Corp., priority 2004, dated 2015).

Tested on: sustained AF maintained during continuous vagal nerve stimulation
Assay: Canine vagal-AF model: termination of sustained AF by drug infused IV
Format: in vivo, dog
Details: for Effective doses for terminating AF: anesthetized mongrel dogs, IV over 5 min, cell format number of dogs-dose
Description: Mongrel dogs of either sex weighing 15-49 kg are anesthetized with morphine (2 mg/kg im initially, followed by 0.5 mg/kg IV every 2 h) and α-chloralose (120 mg/kg IV followed by an infusion of 29.25 mg/kg/h; St.-Georges et al., 1997). Dogs are ventilated mechanically with room air supplemented with oxygen via an endotracheal tube at 20 to 25 breaths/minute with a tidal volume obtained from a nomogram. Arterial blood gases are measured and kept in the physiological range (SAO2>90%, pH 7.30-7.45). Catheters are inserted into the femoral artery for blood pressure recording and blood gas measurement, and into both femoral veins for drug administration and venous sampling. Catheters are kept patent with heparinized 0.9% saline solution. Body temperature is maintained at 37-40° C. with a heating blanket.
The heart is exposed via a medial thoracotomy and a pericardial cradle is created. Three bipolar stainless steel, Teflon™-coated electrodes are inserted into the right atria for recording and stimulation, and one is inserted into the left atrial appendage for recording. A programmable stimulator (Digital Cardiovascular Instruments, Berkeley, Calif.) is used to stimulate the right atrium with 2 ms, twice diastolic threshold pulses. Two stainless steel, Teflon™-coated electrodes are inserted into the left ventricle, one for recording and the other for stimulation. […]
Drug effects to terminate sustained AF maintained during continuous vagal nerve stimulation are assessed. […] The vagal stimulation voltage is adjusted under control conditions, and then readjusted after each treatment to maintain the same bradycardic effect. […]
Diastolic threshold current is determined at a basic cycle length of 300 ms by increasing the current 0.1 mA incrementally until stable capture is obtained. […] Atrial and ventricular ERP is measured with the extrastimulus method, over a range of S1S2 intervals at a basic cycle length of 300 ms. […] Diastolic threshold and ERP are determined in duplicate and averaged to give a single value. […]

For O=C(NCC1CCCCN1)c1cc(OCC(F)(F)F)ccc1OCC(F)(F)F (stereo not drawn) [Flecainide], the “Effective doses for terminating AF” value (AF terminated at this dose in 1 dog) was 10 µmol/kg, the “Effective doses for terminating AF” value (AF terminated at this dose in 4 dogs) was 2.5 µmol/kg and the “Effectiveness as a control in terminating vagal AF” value (control in the present study, compared with earlier reports) was “comparable to that previously reported”.
